In PMC3191909 (Journal of biomolecular screening, 2009):
Like-named read-outs stand apart in the source and are kept apart here.

Key:
α-cobratoxin = α-cobratoxin (Naja kaouthia, UniProt P01391); design: species or system mice; details: mouse, in vivo, iv
AChBP (Ac) [1] = target: T1, AChBP (Ac) (Aplysia californica, UniProt Q8WSF8); test: biochemical; assay type: binding
AChBP (Ac) [2] = target: T1, AChBP (Ac); test: [3H]epibatidine radioligand competition SPA, Ac AChBP; assay type: binding
(UniProt Z9ZW91H0F0) = test: [3H]epibatidine radioligand competition SPA, Bt AChBP; assay type: binding, Bolinus truncates
AChBP (Ls) [3] = target: T2, AChBP (Ls) (Lymnaea stagnalis, UniProt P58154); assay type: binding; details: read-out: Kd, [125I]α-Bungarotoxin
AChBP (Ls) [4] = target: T2, AChBP (Ls); assay type: binding; details: read-out: Kd, [3H]Epibatidine

T2 sequence (P58154 20-229): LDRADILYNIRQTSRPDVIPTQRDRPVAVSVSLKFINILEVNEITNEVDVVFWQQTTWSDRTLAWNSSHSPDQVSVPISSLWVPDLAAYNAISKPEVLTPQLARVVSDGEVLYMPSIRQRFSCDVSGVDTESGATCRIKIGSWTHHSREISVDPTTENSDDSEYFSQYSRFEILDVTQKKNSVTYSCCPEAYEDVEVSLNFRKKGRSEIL
Sequence of α-cobratoxin (P01391 whole entry, looked up): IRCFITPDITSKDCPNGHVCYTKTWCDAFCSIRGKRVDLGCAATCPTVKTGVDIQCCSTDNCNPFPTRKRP
Sequence of (UniProt Z9ZW91H0F0) (Z9ZW91H0F0 1-203): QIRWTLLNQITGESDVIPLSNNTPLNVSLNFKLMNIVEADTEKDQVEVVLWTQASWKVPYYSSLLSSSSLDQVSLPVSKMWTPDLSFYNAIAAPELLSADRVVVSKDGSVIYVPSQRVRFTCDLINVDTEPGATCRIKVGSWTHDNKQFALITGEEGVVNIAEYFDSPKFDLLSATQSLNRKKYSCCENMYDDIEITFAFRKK

Structure (SMILES)	Kd (AChBP (Ls) [3]) [nM]	Kd (AChBP (Ls) [4]) [nM]	further results
c1ccc2c(CN3CCN(Cc4c[nH]c5ccccc45)CC3)c[nH]c2c1 [NSC42258]			effect on survival time of mice (in words) (α-cobratoxin): can prolong the survival time; Kd (AChBP (Ac) [1]): 2910 nM; Kd (AChBP (Ac) [2]): 1150 nM
COc1cc2c3cc1Oc1cc(ccc1O)C[C@@H]1c4c(cc(OC)c(O)c4Oc4ccc(cc4)C[C@@H]3N(C)CC2)CC[N+]1(C)C [NSC36387, d-tubocurarine, reference compound]			Kd ((UniProt Z9ZW91H0F0)): 37.5 nM
N#Cc1ccc(/C=C/C(=O)O)cc1 [NSC134754]	404	793	
COc1cc2c(cc1OC)C13CCN4CC5=CCOC(CC(=O)O)C(C5CC41)C3N2 (centres unmarked) [NSC121865]	75.9	112	
